In ChEMBL document CHEMBL1143024, “Clavaminols A-F, novel cytotoxic 2-amino-3-alkanols from the ascidian Clavelina phlegraea” (Bioorg Med Chem, 2007):
Converted amounts (≈) assume the structure as drawn. The source made the active and inactive calls. The rule behind the calls is not given here.

Legend:
[1] = test system: AGS; experiment: Cytotoxicity against human AGS cells after 24 hrs by calcein uptake assay; assay type: functional, cell-based
[2] = test system: A549; experiment: Cytotoxicity against human A549 cells after 24 hrs by calcein uptake assay; assay type: functional, cell-based
[3] = test system: T47D; experiment: Cytotoxicity against human T47D cells after 24 hrs by calcein uptake assay; assay type: functional, cell-based
[4] = test system: Jurkat; experiment: Induction of apoptosis in human Jurkat cells assessed as increase in hypodiploid cells at 10 ug/mL after 18 hrs by TUNEL method; assay type: functional
[5] = test system: Jurkat; experiment: Cell cycle arrest in human Jurkat cells assessed as accumulation at G1/S phase at 10 ug/mL after 18 hrs […]; assay type: functional, cell-based

| Compound | Activity [1] | IC50 [1] [µg/mL] | Activity [2] | Activity [3] | Activity [4] [%] | Activity [5] |
| --- | --- | --- | --- | --- | --- | --- |
| CCCCCCCCC[C@H](O)[C@@H](C)NC(C)=O | inactive |  |  |  |  |  |
| CCCCCCCCC[C@H](OC(C)=O)[C@@H](C)N | inactive |  |  |  |  |  |
| CCCCCCCCC[C@H](O)[C@@H](C)N [CLAVAMINOL A] |  | 5 (≈ 24.8 µM) | Active | Active | 44.6 | Active |
